Assay results taken from patent US9328106B2, “Cyclic ether pyrazol-4-yl-heterocyclyl-carboxamide compounds and methods of use” (Genentech, Inc., priority 2012, dated 2016).

What follows are compounds tested against PIM1 (Homo sapiens (Human), UniProt P11309) (assay: biochemical). Details: 20 pM PIM1, 1 μM FAM-peptide, 10 μM ATP, 90 minutes at room temperature; read-out: PIM1 LC3K (KI).
Chain of PIM1 (P11309 whole entry): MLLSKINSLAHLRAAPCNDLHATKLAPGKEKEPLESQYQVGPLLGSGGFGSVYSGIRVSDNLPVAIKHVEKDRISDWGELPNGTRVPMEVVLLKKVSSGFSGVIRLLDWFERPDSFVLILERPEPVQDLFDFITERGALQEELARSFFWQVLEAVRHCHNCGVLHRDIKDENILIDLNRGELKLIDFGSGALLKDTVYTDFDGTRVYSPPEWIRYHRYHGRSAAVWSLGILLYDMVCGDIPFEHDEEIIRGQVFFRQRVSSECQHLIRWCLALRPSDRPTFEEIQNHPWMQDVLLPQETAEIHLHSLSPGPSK
Assay type: biochemical
Work on CO[C@H]1CO[C@H](c2c(NC(=O)c3csc(-c4c(F)cccc4F)n3)cnn2C)CC[C@H]1N [Example 221, N-(5-((2S,5R,6R)-5-amino-6-methoxyoxepan-2-yl)-1-methyl-1H-pyrazol-4-yl)-2-(2,6-difluorophenyl)thiazole-4-carboxamide] yielded a Ki of 0.066 nM.
Compound Cc1cc(F)c(-c2nc(C(=O)Nc3cnn(C)c3[C@@H]3CC[C@@H](N)[C@H](F)CO3)ccc2F)c(F)c1 [Example 392, N-(5-((2S,5R,6S)-5-amino-6-fluorooxepan-2-yl)-1-methyl-1H-pyrazol-4-yl)-6-(2,6-difluoro-4-methylphenyl)-5-fluoropicolinamide] has a Ki of 0.041 nM.
Work on Cc1noc(C)c1-c1nc(C(=O)Nc2cnn(C)c2[C@@H]2CC[C@@H](N)[C@H](F)CO2)cs1 [Example 234, N-(5-((2S,5R,6S)-5-amino-6-fluorooxepan-2-yl)-1-methyl-1H-pyrazol-4-yl)-2-(3,5-dimethylisoxazol-4-yl)thiazole-4-carboxamide] yielded a Ki of 0.068 nM.
For Cn1ncc(NC(=O)c2nc(-c3c(F)cccc3F)sc2N)c1C1CCC(N)C(F)CO1 (centres unmarked) [Example 124, 5-amino-N-[5-(5-amino-6-fluoro-oxepan-2-yl)-1-methyl-pyrazol-4-yl]-2-(2,6-difluorophenyl)thiazole-4-carboxamide], the Ki was 0.015 nM.
Compound Cn1ncc(NC(=O)c2nc(-c3c(F)cccc3F)sc2N)c1C1CC(F)(F)CC(N)CO1 (single isomer, unassigned) [Example 114, 5-amino-N-[5-(6-amino-4,4-difluoro-oxepan-2-yl)-1-methyl-pyrazol-4-yl]-2-(2,6-difluorophenyl)thiazole-4-carboxamide] has a Ki of 0.032 nM.
Cn1ncc(NC(=O)c2ccc(F)c(-c3c(F)cc(O)cc3F)n2)c1[C@@H]1CC[C@@H](N)[C@H](F)CO1 [Example 208, N-(5-((2S,5R,6S)-5-amino-6-fluorooxepan-2-yl)-1-methyl-1H-pyrazol-4-yl)-6-(2,6-difluoro-4-hydroxyphenyl)-5-fluoropicolinamide] showed a Ki of 0.012 nM.
Cn1ncc(NC(=O)c2csc(-c3cccc4cnn(C)c34)n2)c1[C@@H]1CC[C@@H](N)[C@H](F)CO1 [Example 403, N-[5-[(2S,5R,6S)-5-amino-6-fluoro-oxepan-2-yl]-1-methyl-pyrazol-4-yl]-2-(1-methylindazol-7-yl)thiazole-4-carboxamide] was tested, and the Ki was 5.91 nM.
Cn1ncc(NC(=O)c2csc(-c3cncc(F)c3)n2)c1[C@@H]1CC[C@@H](N)[C@H](F)CO1 [Example 239, N-(5-((2S,5R,6S)-5-amino-6-fluorooxepan-2-yl)-1-methyl-1H-pyrazol-4-yl)-2-(5-fluoropyridin-3-yl)thiazole-4-carboxamide] showed a Ki of 2.66 nM.
With COc1cc(F)c(-c2nc(C(=O)Nc3cnn(C)c3[C@@H]3CC[C@@H](N)[C@H](F)CO3)ccc2F)c(F)c1 [Example 201, N-(5-((2S,5R,6S)-5-amino-6-fluorooxepan-2-yl)-1-methyl-1H-pyrazol-4-yl)-6-(2,6-difluoro-4-methoxyphenyl)-5-fluoropicolinamide] the Ki was 0.019 nM.
Compound Cn1cc(-c2nc(C(=O)Nc3cnn(C)c3[C@@H]3CC[C@@H](N)[C@@H](F)CO3)cs2)c(C(F)(F)F)n1 [Example 252, N-(5-((2S,5R,6R)-5-amino-6-fluorooxepan-2-yl)-1-methyl-1H-pyrazol-4-yl)-2-(1-methyl-3-(trifluoromethyl)-1H-pyrazol-4-yl)thiazole-4-carboxamide] has a Ki of 0.281 nM.
Work on Cn1ncc(NC(=O)c2nc(-c3c(F)cccc3F)sc2N)c1[C@@H]1CC(F)[C@H](N)CCO1 (stereo partly drawn) [Example 150, 5-Amino-N-[5-[(2S,5R)-5-amino-4-fluoro-oxepan-2-yl]-1-methyl-pyrazol-4-yl]-2-(2,6-difluorophenyl)thiazole-4-carboxamide] yielded a Ki of 0.105 nM.
Work on COc1ncccc1-c1nc(C(=O)Nc2cnn(C)c2[C@@H]2CC[C@@H](N)[C@H](F)CO2)cs1 [Example 232, N-(5-((2S,5R,6S)-5-amino-6-fluorooxepan-2-yl)-1-methyl-1H-pyrazol-4-yl)-2-(2-methoxypyridin-3-yl)thiazole-4-carboxamide] yielded a Ki of 1.11 nM.
Compound Cn1ncc(NC(=O)c2nc(-c3cccc(C(F)(F)F)c3F)sc2N)c1[C@@H]1CC[C@@H](N)[C@H](F)CO1 [Example 156, 5-amino-N-(5-((2S,5R,6S)-5-amino-6-fluorooxepan-2-yl)-1-methyl-1H-pyrazol-4-yl)-2-(2-fluoro-3-(trifluoromethyl)phenyl)thiazole-4-carboxamide] has a Ki of 0.107 nM.
With Cn1ncc(NC(=O)c2ccc(F)c(-c3c(F)cc(C4(O)COC4)cc3F)n2)c1[C@@H]1CC[C@@H](N)[C@H](F)CO1 [Example 193, N-(5-((2S,5R,6S)-5-amino-6-fluorooxepan-2-yl)-1-methyl-1H-pyrazol-4-yl)-6-(2,6-difluoro-4-(3-hydroxyoxetan-3-yl)phenyl)-5-fluoropicolinamide] the Ki was 0.034 nM.
Cc1cccnc1-c1nc(C(=O)Nc2cnn(C)c2[C@@H]2CC[C@@H](N)[C@H](F)CO2)c(N)s1 [Example 398, 5-amino-N-[5-[(2S,5R,6S)-5-amino-6-fluoro-oxepan-2-yl]-1-methyl-pyrazol-4-yl]-2-(3-methyl-2-pyridyl)thiazole-4-carboxamide] showed a Ki of 0.004 nM.
For Cn1ncc(NC(=O)c2nc(-c3ccncc3F)sc2N)c1[C@@]12CC[C@@H](N)[C@@H](CC1)O2 (stereo in doubt) [Example 161, 5-Amino-N-[5-[2-amino-8-oxabicyclo[3.2.1]octan-5-yl]-1-methyl-pyrazol-4-yl]-2-(3-fluoro-4-pyridyl)thiazole-4-carboxamide], the Ki was 0.013 nM.
Work on COCCOc1cc(F)c(-c2nc(C(=O)Nc3cnn(C)c3[C@@H]3CC[C@@H](N)[C@H](O)CO3)ccc2F)c(F)c1 [Example 191, N-(5-((2S,5R,6S)-5-Amino-6-hydroxyoxepan-2-yl)-1-methyl-1H-pyrazol-4-yl)-6-(2,6-difluoro-4-(2-methoxyethoxy)phenyl)-5-fluoropicolinamide] yielded a Ki of 0.056 nM.
Work on Cn1ncc(NC(=O)c2csc(-c3ccc(C4(C)COC4)cc3F)n2)c1[C@@H]1CC[C@@H](N)[C@H](F)CO1 [Example 393, N-(5-((2S,5R,6S)-5-amino-6-fluorooxepan-2-yl)-1-methyl-1H-pyrazol-4-yl)-2-(2-fluoro-4-(3-methyloxetan-3-yl)phenyl)thiazole-4-carboxamide] yielded a Ki of 0.003 nM.
CO[C@H]1CO[C@H](c2c(NC(=O)c3nc(-c4ccccc4C(F)(F)F)sc3N)cnn2C)CC[C@H]1N [Example 220, 5-amino-N-(5-((2S,5R,6R)-5-amino-6-methoxyoxepan-2-yl)-1-methyl-1H-pyrazol-4-yl)-2-(2-(trifluoromethyl)phenyl)thiazole-4-carboxamide] was tested, and the Ki was 0.083 nM.
Work on Cn1ncc(NC(=O)c2nc(-c3ccccc3F)sc2N)c1C12CCC(CN)(CC1)O2 [Example 139, 5-amino-N-[5-[1-(aminomethyl)-7-oxabicyclo[2.2.1]heptan-4-yl]-1-methyl-pyrazol-4-yl]-2-(2-fluorophenyl)thiazole-4-carboxamide] yielded a Ki of 0.053 nM.
Work on Cn1ncc(NC(=O)c2csc(-c3c(F)ccc4[nH]ccc34)n2)c1[C@@H]1CC[C@@H](N)[C@H](F)CO1 [Example 400, N-[5-[(2S,5R,6S)-5-amino-6-fluoro-oxepan-2-yl]-1-methyl-pyrazol-4-yl]-2-(5-fluoro-1H-indol-4-yl)thiazole-4-carboxamide] yielded a Ki of 0.011 nM.
CCOc1ccc(F)c(-c2nc(C(=O)Nc3cnn(C)c3[C@@H]3CC[C@@H](N)[C@H](F)CO3)cs2)c1F [Example 285, N-(5-((2S,5R,6S)-5-amino-6-fluorooxepan-2-yl)-1-methyl-1H-pyrazol-4-yl)-2-(3-ethoxy-2,6-difluorophenyl)thiazole-4-carboxamide] was tested, and the Ki was 0.001 nM.
CO[C@H]1CO[C@H](c2c(NC(=O)c3nc(-c4ccccc4F)sc3N)cnn2C)CC[C@H]1N [Example 183, 5-Amino-N-[5-[(2S,5R,6R)-5-amino-6-methoxy-oxepan-2-yl]-1-methyl-pyrazol-4-yl]-2-(2-fluorophenyl)thiazole-4-carboxamide] was tested, and the Ki was 0.0143 nM.
Cn1ncc(NC(=O)c2nc(-c3cccc(F)c3C(F)(F)F)sc2N)c1[C@@H]1CC[C@@H](N)[C@H](F)CO1 [Example 336, 5-amino-N-(5-((2S,5R,6S)-5-amino-6-fluorooxepan-2-yl)-1-methyl-1H-pyrazol-4-yl)-2-(3-fluoro-2-(trifluoromethyl)phenyl)thiazole-4-carboxamide] gave a Ki of 0.188 nM.
For CO[C@H]1CO[C@H](c2c(NC(=O)c3nc(-c4cc(C)ccc4F)sc3N)cnn2C)CC[C@H]1N [Example 264, 5-amino-N-(5-((2S,5R,6R)-5-amino-6-methoxyoxepan-2-yl)-1-methyl-1H-pyrazol-4-yl)-2-(2-fluoro-5-methylphenyl)thiazole-4-carboxamide], the Ki was 0.02 nM.
Cn1ncc(NC(=O)c2ccc(F)c(-c3c(F)cc(C4(O)CCC4)cc3F)n2)c1[C@@H]1CC[C@@H](N)[C@H](F)CO1 [Example 198, N-(5-((2S,5R,6S)-5-amino-6-fluorooxepan-2-yl)-1-methyl-1H-pyrazol-4-yl)-6-(2,6-difluoro-4-(1-hydroxycyclobutyl)phenyl)-5-fluoropicolinamide] showed a Ki of 0.021 nM.
Cn1ncc(NC(=O)c2ccc(F)c(-c3c(F)cc(OC4CCOCC4)cc3F)n2)c1[C@@H]1CC[C@@H](N)[C@H](F)CO1 [Example 197, N-(5-((2S,5R,6S)-5-Amino-6-fluorooxepan-2-yl)-1-methyl-1H-pyrazol-4-yl)-6-(2,6-difluoro-4-((tetrahydro-2H-pyran-4-yl)oxy)phenyl)-5-fluoropicolinamide] showed a Ki of 0.018 nM.
Cn1ncc(NC(=O)c2csc(-c3cccc(F)c3F)n2)c1[C@@H]1CC[C@@H](N)[C@@H](F)CO1 [Example 245, N-(5-((2S,5R,6R)-5-amino-6-fluorooxepan-2-yl)-1-methyl-1H-pyrazol-4-yl)-2-(2,3-difluorophenyl)thiazole-4-carboxamide] was tested, and the Ki was 0.104 nM.
CC[C@]1(CO)CO[C@H](c2c(NC(=O)c3nc(-c4c(F)cccc4F)sc3N)cnn2C)OC1 [Example 162, 5-Amino-2-(2,6-difluorophenyl)-N-[5-[5-ethyl-5-(hydroxymethyl)-1,3-dioxan-2-yl]-1-methyl-pyrazol-4-yl]thiazole-4-carboxamide] was tested, and the Ki was 0.025 nM.
